{"source": "patent US20090221690A1", "about": "“Pharmaceutical Composition for the Prevention/Treatment of Bone Disorders and a Process for the Preparation Thereof” (COUNCIL OF SCIENTIFIC AND INDUSTRIAL RESEARCH, priority 2006, published 2009)", "key": {"[1]": {"system": "bilaterally ovariectomized immature rats", "assay": "Estrogen agonistic activity (uterine weight gain)", "assay_type": "in vivo, rat", "details": "0.01 mg/kg/d, oral, 3 days", "experimental": "The test agents were administered once daily for 3 consecutive days by the oral route and uterine weight gain over the corresponding vehicle control group was determined. 17α-Ethynylestradiol was used as reference standard."}, "osteoblasts [2]": {"system": "osteoblasts", "assay": "Quantification of alkaline phosphatase activity in osteoblasts", "assay_type": "cell-based, Balb/c mouse", "set-up": "alkaline phosphatase activity: unit not given here", "details": "48 h; for alkaline phosphatase activity: Control 1.87 ± 0.20, Mean±SEM", "method": "(§1) Neonatal mouse calvarial cell cultures are prepared as described previously (Endocrinology 139:4743) using slight modification. Briefly, for primary osteoblast cell cultures, frontal and parietal bones from Balb/c mouse neonates (1-3 day old) are digested in 0.1% collagenase/0.1% dispase in α-MEM to obtain 5 sequential digests. The second through fifth digests are combined and grown to confluence at 37° C. and 5% CO2 in air in α-MEM, supplemented with 10% fetal bovine serum (FBS), 2 mM glutamine, 100 U/ml penicillin-streptomycin, Non-essential amino acid solution and sodium pyruvate. The effect of test agents is analysed using the following tests:\np-Nitrophenol phosphate is a colorless substrate which is hydrolysed to colored p-nitrophenol by alkaline phosphatase enzyme. Rate of hydrolysis of p-nitrophenol phosphate is proportional to enzyme present in sample. […] Findings reveal that all the five pure compounds nos."}, "[3]": {"system": "Cladosporium cladosporioides", "details": "Bandara et al. 1989/1990; cited from earlier work"}, "primary osteoblasts": {"system": "primary osteoblasts", "assay": "MTT assay for cell proliferation, primary osteoblast cell culture", "assay_type": "cell-based, Balb/c mouse", "details": "24 h; for Osteoblast cell proliferation (MTT assay): Vehicle 0.60 ± 0.06, Mean±SEM", "method": "as §1\nMTT assay is a common assay used for assessing cell proliferation where tetrazolium salt is reduced to formazone crystals by the mitochondrial dehydrogenase enzyme, which are then dissolved in DMSO. More the number of metabolically active cells more will be the formazone crystals formed. Briefly, osteoblast cells are maintained in α-MEM medium supplemented with 10% FCS and 1% antibiotic solution in 96 well plate. When the cells attain 40% confluency, they are treated in presence or absence of test agents in 2% FCS supplemented media for 24 h. Twenty-four hours thereafter, MTT salt is added to the cells. After 4 h, the formazone crystals formed are dissolved in DMSO and readings taken at wavelength of 570 nm.\nThis assay is based on the ability of viable cells to reduce tetrazolium salt to form formazone crystals by mitochondrial dehydrogenase enzyme. In MTT assay, osteoblasts are maintained in α-MEM medium supplemented with 10% FCS and 1% antibiotic solution in 96 well plate. When the cells attain 40% confluency, they are treated in presence or absence of test agents in 2% FCS supplemented media for 24 h. Twenty-four hours thereafter, MTT salt is added to the cells. After 4 h, the formazone crystals formed due to reduction of tetrazolium salt by mitochondrial dehydrogenase enzyme are dissolved in DMSO and readings taken at wavelength of 570 nm. All the five pure compounds nos."}, "[4]": {"system": "osteoblasts cultured on sterile bovine bone slices", "assay": "Mineralisation by osteoblasts cultured on bovine bone slices, Alizarin red staining", "assay_type": "cell-based, Balb/c mouse", "details": "15 days, FIGS. 14 and 15", "method": "as §1\n(§2) Cells are seeded onto sterile bovine bone slices in 96-well plate and treated with the culture medium containing α-MEM, supplemented with 10% fetal bovine serum, 2 mM glutamine, 100 U/ml penicillin-streptomycin, non-essential amino acid solution, sodium pyruvate, 10 mM P-glycerophosphate and 50 μg/ml ascorbic acid. Culture medium is changed every alternate day. At termination of the culture, cells are washed twice with PBS, fixed in cold 70% ethanol for 1 h and washed once with water and stained with 40 mM Alizarin red (pH 4.7) for 30 min and then washed in PBS to remove excess staining.\nas §2, with “In case of osteoblasts” for “Cells are”, “slices, the cells are cultured” for “slices”, “in A-MEM” for “and treated with the culture medium containing α-MEM,”, “p-glycerophosphate” for “P-glycerophosphate”, “acid in the absence or presence of test compounds or their mixtures.” for “acid.”, “culture after 15 days,” for “culture,”"}, "osteoblast cells": {"system": "osteoblast cells", "assay": "Quantification of mineralization in osteoblasts (Alizarin red, acetic acid extraction)", "assay_type": "cell-based, Balb/c mouse", "details": "osteoblasts cultured 7 days; vs vehicle control; FIG. 13", "method": "as §1\nFor quantification of mineralization which is measured with increased deposition of nascent calcium in osteoblast cells, cells were cultured in the presence of test compounds for 7 days and stained with Alizarin red. Alizarin red was extracted with acetic acid and the intensity of stain, which is directly proportion to the extent of mineralisation, is read at 405 nm."}, "osteoblasts [5]": {"system": "osteoblasts", "assay": "Osteogenic activity of isolated compounds based on alkaline phosphatase expression, MTT and mineralisation in vitro", "assay_type": "cell-based", "from_the_text": "K051, K052, K054, K080, K082 (isolated from n-butanol soluble fraction) and K095 (isolated from chloroform soluble fraction) (FIGS. 11-15; Tables 10-11)."}, "[6]": {"system": "MCF-7 (human cancer breast) cell line", "assay": "MTT proliferation assay in MCF-7 cell line", "assay_type": "cell-based", "details": "10 nM and 1 μM; MCF-7 cells; FIG. 2"}, "[7]": {"system": "Ishikawa (human uterine glandular epithelial carcinoma) cell line", "assay": "MTT proliferation assay in Ishikawa cell line", "assay_type": "cell-based", "details": "10 nM and 1 μM; Ishikawa cells; FIG. 2"}, "[8]": {"system": "PTH-induced resorption of ^45Ca from chick fetal bones in culture", "assay": "Chick fetal bone culture assay, bone antiresorbing activity", "assay_type": "cell-based", "details": "100 μM; vehicle 1.03; T/C close to unity = no antiresorbing activity", "method": "A slight modification of the method of Raisz (Nature 197: 1015-1016, 1963) was employed. Femur bones are isolated from chick embryos on day 11 post-ovulation and cleared of adhering connective tissue by carefully rotating each bone on dry Whatman (I) filter paper under stereomicroscope. Each femur bone is then placed in a drop of PBS before culturing in BGJb medium (pH 7.3) supplemented with penicillin (0.075 mg/ml), streptomycin (0.05 mg/ml), HEPES (2.382 mg/ml) and BSA (1 mg/ml), transferred to BGJb culture medium containing ^45CaCl2 (0.5 μCi/300 μl culture medium) and incubated for 2 h at 37° C. under 5% CO2 in air. Labeled femur bones are then washed with BGJb medium for 24 h at 37° C. under 5% CO2 in air. An aliquot of the medium was withdrawn for the measurement of ^45Ca released into the medium from bone during the first 24 h. […] Radioactivity due to ^45Ca in the spent medium collected at 24, 48 and 96 h of culture and HCl extract at 96 h of culture is quantified by Liquid Scintillation Spectrophotometer in 10 ml of the scintillation fluid (ACS II scintillation cocktail, Amersham Biosciences, UK). […] Bone anti-resorbing activity is expressed as percentage of ^45Ca released into the culture medium and the effect of the agent of invention as percent of the corresponding contra-lateral control or T/C ratio as shown below. […]"}, "[9]": {"system": "labeled chick fetal bones in culture", "assay": "Chick fetal bone culture assay, bone forming activity", "assay_type": "cell-based", "details": "0.4 μM; T/C close to unity = no bone forming activity", "method": "A slight modification of the method of Raisz (Nature 197: 1015-1016, 1963) was employed. Femur bones are isolated from chick embryos on day 11 post-ovulation and cleared of adhering connective tissue by carefully rotating each bone on dry Whatman (I) filter paper under stereomicroscope. Each femur bone is then placed in a drop of PBS before culturing in BGJb medium (pH 7.3) supplemented with penicillin (0.075 mg/ml), streptomycin (0.05 mg/ml), HEPES (2.382 mg/ml) and BSA (1 mg/ml), transferred to BGJb culture medium containing ^45CaCl2 (0.5 μCi/300 μl culture medium) and incubated for 2 h at 37° C. under 5% CO2 in air. Labeled femur bones are then washed with BGJb medium for 24 h at 37° C. under 5% CO2 in air. […]\nContralateral femur of each fetus serves as corresponding control. […] Radioactivity due to ^45Ca in the spent medium collected at 24, 48 and 96 h of culture and HCl extract at 96 h of culture is quantified by Liquid Scintillation Spectrophotometer in 10 ml of the scintillation fluid (ACS II scintillation cocktail, Amersham Biosciences, UK). […]\nBone forming activity (cpm)=A×(A/B)^1/2 ×Total radioactivity incorporated into bone during 24 h incubation with ^45Ca\nwhere total radioactivity refers to ^45Ca released into the medium during first 24 hrs incubation+^45Ca released into the medium during 24 to 96 hr of incubation+^45Ca remaining in the femur. […]"}}}
{"molecule": "C#C[C@]1(O)CC[C@H]2[C@@H]3CCc4cc(O)ccc4[C@H]3CC[C@@]21C", "note": "[17α-Ethynylestradiol]", "values": [{"measurement": "Uterine weight gain", "setting": "[1]", "result": 514, "unit": "%"}]}
{"molecule": "COc1ccc2c(c1)OC1c3ccc(O)cc3OCC21", "note": "(centres unmarked) [Compound K095, 3-hydroxy-9-methoxypterocarpans]", "values": [{"measurement": "alkaline phosphatase activity", "setting": "osteoblasts [2]; 10^−5 M", "result": "3.28 ± 0.07"}, {"measurement": "alkaline phosphatase activity", "setting": "osteoblasts [2]; 10^−6 M", "result": "3.42 ± 0.07"}, {"measurement": "alkaline phosphatase activity", "setting": "osteoblasts [2]; 10^−7 M", "result": "3.50 ± 0.07"}, {"measurement": "alkaline phosphatase activity", "setting": "osteoblasts [2]; 10^−8 M", "result": "3.35 ± 0.10"}, {"measurement": "alkaline phosphatase activity", "setting": "osteoblasts [2]; 10^−9 M", "result": "3.54 ± 0.04"}, {"measurement": "alkaline phosphatase activity", "setting": "osteoblasts [2]; 10^−10 M", "result": "3.40 ± 0.07"}, {"measurement": "expression of alkaline phosphatase vs vehicle control", "setting": "osteoblasts [2]; 10^−11 M to 10^−5 M", "result": "increased expression of alkaline phosphatase"}, {"measurement": "alkaline phosphatase activity", "setting": "osteoblasts [2]; 10^−11 M", "result": "3.51 ± 0.01"}, {"measurement": "activity against Cladosporium cladosporioides", "setting": "[3]", "result": "active"}, {"measurement": "Osteoblast cell proliferation (MTT assay)", "setting": "primary osteoblasts; 10^−5 M", "result": "1.28 ± 0.08"}, {"measurement": "Osteoblast cell proliferation (MTT assay)", "setting": "primary osteoblasts; 10^−6 M", "result": "1.47 ± 0.14"}, {"measurement": "Osteoblast cell proliferation (MTT assay)", "setting": "primary osteoblasts; 10^−7 M", "result": "1.35 ± 0.16"}, {"measurement": "Osteoblast cell proliferation (MTT assay)", "setting": "primary osteoblasts; 10^−8 M", "result": "1.24 ± 0.18"}, {"measurement": "Osteoblast cell proliferation (MTT assay)", "setting": "primary osteoblasts; 10^−9 M", "result": "1.14 ± 0.19"}, {"measurement": "Osteoblast cell proliferation (MTT assay)", "setting": "primary osteoblasts; 10^−10 M", "result": "1.38 ± 0.18"}, {"measurement": "osteoblast cell proliferation vs vehicle control", "setting": "primary osteoblasts; 10^−11 M to 10^−5 M", "result": "enhanced osteoblast cell proliferation"}, {"measurement": "Osteoblast cell proliferation (MTT assay)", "setting": "primary osteoblasts; 10^−11 M", "result": "1.05 ± 0.03"}, {"measurement": "relative potency in mineralisation on bovine bone slices", "setting": "[4]", "result": "most potent"}, {"measurement": "intensity of alizarin red staining (rate of new bone formation)", "setting": "[4]; osteoblasts on bovine bone slices, alone or in combination", "result": "increased intensity of alizarin red staining"}, {"measurement": "mineralisation quantified by alizarin extraction method", "setting": "osteoblast cells", "result": "enhanced mineralisation"}, {"measurement": "osteogenic activity", "setting": "osteoblasts [5]", "result": "promising osteogenic activity"}]}
{"molecule": "C[C@]12CC[C@@H]3c4ccc(O)cc4CC[C@H]3[C@@H]1CC[C@@H]2O", "note": "[Estradiol-17β]", "values": [{"measurement": "proliferation", "setting": "[6]", "result": "marked increase in proliferation"}, {"measurement": "proliferation", "setting": "[7]", "result": "marked increase in proliferation"}, {"measurement": "T/C ratio (PTH-induced resorption of ^45Ca)", "setting": "[8]", "result": 0.37}]}
{"molecule": "PTH (aa 1-34): Parathyroid hormone (PTH; aa 1-34), an osteogenic agent, taken as positive control (SVSEIQLMHNLGKHLNSMERVEWLRKKLQDVHNF; Parathyroid hormone; UniProt P01270 32-65, looked up, fragment)", "values": [{"measurement": "T/C ratio (bone forming activity)", "setting": "[9]", "result": 0.44}]}
